# Laboratory results as given in PubChem BioAssay (NCI).
#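 Compound exposure: 48 hours, 5 concentrations, 96-well plates. Here, GI50 denotes the concentration required for 50% inhibition of growth. At the TGI there is no net growth.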
# Experiments:
# Assay in all cases: NCI-60 cell line screen, 48 h
# [1] = tested on: EKVX NSCLC
# [2] = tested on: SK-MEL-5 melanoma
# [3] = tested on: MOLT-4 leukemia
# [4] = tested on: UACC-257 melanoma
# [5] = tested on: IGROV1 ovarian
# [6] = tested on: COLO 205 colon
# [7] = tested on: HOP-62 NSCLC
# [8] = tested on: RPMI-8226 leukemia
# [9] = tested on: SF-539 CNS
# [10] = tested on: OVCAR-3 ovarian
# [11] = tested on: HT29 colon
# [12] = tested on: HOP-92 NSCLC
# [13] = tested on: KM12 colon
# [14] = tested on: UO-31 renal
# [15] = tested on: OVCAR-4 ovarian
# [16] = tested on: SF-268 CNS
# [17] = tested on: NCI-H226 lung
# [18] = tested on: OVCAR-5 ovarian
# [19] = tested on: PC-3 prostate
# [20] = tested on: A549 NSCLC
# [21] = tested on: ACHN renal
# [22] = tested on: OVCAR-8 ovarian
# [23] = tested on: HCT-116 colon
# [24] = tested on: NCI-H460 lung
# [25] = tested on: SN12C renal
# [26] = tested on: SW-620 colon
# [27] = tested on: RXF 393 renal
# [28] = tested on: U251 CNS
# [29] = tested on: A498 renal
# [30] = tested on: MCF7 breast
# [31] = tested on: CAKI-1 renal
# [32] = tested on: SR leukemia
# [33] = tested on: NCI-H522 lung
# [34] = tested on: T-47D breast
# [35] = tested on: HCT-15 colon
# [36] = tested on: MDA-MB-435
# [37] = tested on: MALME-3M melanoma
# [38] = tested on: BT-549 breast
# [39] = tested on: SNB-75 CNS
# [40] = tested on: TK-10 renal
# [41] = tested on: SK-MEL-28 melanoma
# [42] = tested on: DU-145 prostate
# [43] = tested on: UACC-62 melanoma
# [44] = tested on: K-562 leukemia
# [45] = tested on: SF-295 CNS
# [46] = tested on: LOX IMVI melanoma
# [47] = tested on: MDA-MB-231 breast
# [48] = tested on: M14 melanoma
# [49] = tested on: HCC-2998 colon
# [50] = tested on: 786-0 renal
# [51] = tested on: SK-MEL-2 melanoma
# [52] = tested on: SK-OV-3 ovarian
# [53] = tested on: HL-60(TB) leukemia
# [54] = tested on: NCI/ADR-RES ovarian
# [55] = tested on: SNB-19 CNS
# [56] = tested on: HS 578T breast
smiles,measurement,setting,value
N/C(=N\c1nc2c(Cl)cc(Cl)cc2s1)C(Cl)(Cl)Cl,GI50,[1],6.01 µM
same,TGI,[1],26.6 µM
same,GI50,[2],> 100 µM
same,TGI,[2],> 100 µM
same,GI50,[3],34.6 µM
same,TGI,[3],> 100 µM
same,GI50,[4],22.4 µM
same,TGI,[4],> 100 µM
same,GI50,[5],55.8 µM
same,TGI,[5],> 100 µM
same,GI50,[6],3.46 µM
same,TGI,[6],16.2 µM
same,GI50,[7],5.62 µM
same,TGI,[7],24.6 µM
same,GI50,[8],17 µM
same,TGI,[8],> 100 µM
same,GI50,[9],17.2 µM
same,TGI,[9],> 100 µM
same,GI50,[10],5.57 µM
same,TGI,[10],35.4 µM
same,GI50,[11],5.21 µM
same,TGI,[11],29.7 µM
same,GI50,[12],2.89 µM
same,TGI,[12],25.8 µM
same,GI50,[13],5.8 µM
same,TGI,[13],71.8 µM
same,GI50,[14],25.2 µM
same,TGI,[14],> 100 µM
same,GI50,[15],41 µM
same,TGI,[15],> 100 µM
same,GI50,[16],51.5 µM
same,TGI,[16],> 100 µM
same,GI50,[17],> 100 µM
same,TGI,[17],> 100 µM
same,GI50,[18],45.2 µM
same,TGI,[18],> 100 µM
same,GI50,[19],12.9 µM
same,TGI,[19],75.8 µM
same,GI50,[20],5.65 µM
same,TGI,[20],19.4 µM
same,GI50,[21],3.59 µM
same,TGI,[21],22.2 µM
same,GI50,[22],> 100 µM
same,TGI,[22],> 100 µM
same,GI50,[23],28.1 µM
same,TGI,[23],> 100 µM
same,GI50,[24],3.63 µM
same,TGI,[24],18.2 µM
same,GI50,[25],> 100 µM
same,TGI,[25],> 100 µM
same,GI50,[26],48 µM
same,TGI,[26],> 100 µM
same,GI50,[27],12.5 µM
same,TGI,[27],> 100 µM
same,GI50,[28],6.63 µM
same,TGI,[28],96.6 µM
same,GI50,[29],15.3 µM
same,TGI,[29],29.4 µM
same,GI50,[30],3.02 µM
same,TGI,[30],> 100 µM
same,GI50,[31],9.28 µM
same,TGI,[31],> 100 µM
same,GI50,[32],77.4 µM
same,TGI,[32],> 100 µM
same,GI50,[33],> 100 µM
same,TGI,[33],> 100 µM
same,GI50,[34],5.4 µM
same,TGI,[34],> 100 µM
same,GI50,[35],53.2 µM
same,TGI,[35],> 100 µM
same,GI50,[36],61.3 µM
same,TGI,[36],> 100 µM
same,GI50,[37],> 100 µM
same,TGI,[37],> 100 µM
same,GI50,[38],85.5 µM
same,TGI,[38],> 100 µM
same,GI50,[39],> 100 µM
same,TGI,[39],> 100 µM
same,GI50,[40],31.7 µM
same,TGI,[40],> 100 µM
same,GI50,[41],29.2 µM
same,TGI,[41],> 100 µM
same,GI50,[42],3.11 µM
same,TGI,[42],15.8 µM
same,GI50,[43],26.7 µM
same,TGI,[43],> 100 µM
same,GI50,[44],55.3 µM
same,TGI,[44],> 100 µM
same,GI50,[45],11.5 µM
same,TGI,[45],> 100 µM
same,GI50,[46],3.3 µM
same,TGI,[46],26.3 µM
same,GI50,[47],38.3 µM
same,TGI,[47],> 100 µM
same,GI50,[48],> 100 µM
same,TGI,[48],> 100 µM
same,GI50,[49],6.11 µM
same,TGI,[49],23.6 µM
same,GI50,[50],> 100 µM
same,TGI,[50],> 100 µM
same,GI50,[51],> 100 µM
same,TGI,[51],> 100 µM
same,GI50,[52],35.4 µM
same,TGI,[52],> 100 µM
same,GI50,[53],4.91 µM
same,TGI,[53],> 100 µM
same,GI50,[54],88.6 µM
same,TGI,[54],> 100 µM
same,GI50,[55],19.4 µM
same,TGI,[55],> 100 µM
same,GI50,[56],17.9 µM
same,TGI,[56],> 100 µM
